Measurements: the NIST ThermoML archive (doi:10.1021/acs.jced.5b00934)

Settings: Liquid, Vibrating tube method

CCC(C)O (configuration not stated) [butan-2-ol]
Settings | mass density [kg/m3]
283.15 K, 99 kPa | 814.7
283.15 K, 306 kPa | 814.8
283.15 K, 529 kPa | 815
283.15 K, 909 kPa | 815.3
283.15 K, 1030 kPa | 815.4
283.15 K, 2005 kPa | 816.1
283.15 K, 2987 kPa | 816.8
283.15 K, 4975 kPa | 818.2
283.15 K, 6996 kPa | 819.6
283.15 K, 9019 kPa | 821
283.15 K, 10037 kPa | 821.7
283.15 K, 12013 kPa | 823
283.15 K, 14917 kPa | 824.9
283.15 K, 17956 kPa | 826.9
283.15 K, 20028 kPa | 828.2
283.15 K, 21997 kPa | 829.4
283.15 K, 24984 kPa | 831.2
283.15 K, 27996 kPa | 833
283.15 K, 29889 kPa | 834.1
283.15 K, 31914 kPa | 835.3
283.15 K, 33047 kPa | 835.9
283.15 K, 33065 kPa | 835.9
283.15 K, 34001 kPa | 836.4
283.15 K, 34979 kPa | 836.9
283.15 K, 40002 kPa | 839.7
283.15 K, 42074 kPa | 840.9
283.15 K, 44993 kPa | 842.4
283.15 K, 48024 kPa | 844
283.15 K, 50047 kPa | 845.1
283.15 K, 52032 kPa | 846.1
283.15 K, 55041 kPa | 847.6
283.15 K, 57909 kPa | 849.1
283.15 K, 60034 kPa | 850.1
283.15 K, 62037 kPa | 851.1
283.15 K, 65102 kPa | 852.6
283.15 K, 66079 kPa | 853
283.16 K, 37912 kPa | 838.6
288.15 K, 99 kPa | 810.8
288.15 K, 298 kPa | 811
288.15 K, 511 kPa | 811.1
288.15 K, 912 kPa | 811.4
288.15 K, 993 kPa | 811.5
288.15 K, 2048 kPa | 812.3
288.15 K, 3020 kPa | 813
288.15 K, 5097 kPa | 814.5
288.15 K, 10002 kPa | 818
288.15 K, 11924 kPa | 819.3
288.15 K, 15086 kPa | 821.4
288.15 K, 17992 kPa | 823.4
288.15 K, 19982 kPa | 824.6
288.15 K, 21991 kPa | 825.9
288.15 K, 25200 kPa | 827.9
288.15 K, 28149 kPa | 829.7
288.15 K, 30056 kPa | 830.8
288.15 K, 32010 kPa | 832
288.15 K, 32915 kPa | 832.4
288.15 K, 32978 kPa | 832.5
288.15 K, 33919 kPa | 833
288.15 K, 37967 kPa | 835.3
288.15 K, 40071 kPa | 836.5
288.15 K, 42013 kPa | 837.6
288.15 K, 45099 kPa | 839.3
288.15 K, 47977 kPa | 840.8
288.15 K, 51983 kPa | 842.9
288.15 K, 57976 kPa | 846
288.15 K, 62043 kPa | 848
288.15 K, 64998 kPa | 849.5
288.15 K, 66143 kPa | 850
288.16 K, 6990 kPa | 815.8
288.16 K, 9100 kPa | 817.3
288.16 K, 35048 kPa | 833.7
288.16 K, 50052 kPa | 842
288.16 K, 54961 kPa | 844.5
288.16 K, 59961 kPa | 847
293.15 K, 99 kPa | 806.7
293.15 K, 891 kPa | 807.3
293.15 K, 10027 kPa | 814.1
293.15 K, 12006 kPa | 815.5
293.15 K, 14925 kPa | 817.5
293.15 K, 22039 kPa | 822.3
293.15 K, 24969 kPa | 824.2
293.15 K, 28001 kPa | 826
293.15 K, 30012 kPa | 827.2
293.15 K, 31992 kPa | 828.4
293.15 K, 33079 kPa | 829.1
293.15 K, 34051 kPa | 829.6
293.15 K, 37933 kPa | 831.9
293.15 K, 40088 kPa | 833.1
293.15 K, 42062 kPa | 834.2
293.15 K, 45052 kPa | 835.9
293.15 K, 48098 kPa | 837.6
293.15 K, 50000 kPa | 838.6
293.15 K, 51999 kPa | 839.7
293.15 K, 55060 kPa | 841.3
293.15 K, 58191 kPa | 842.9
293.15 K, 62049 kPa | 844.8
293.15 K, 64958 kPa | 846.3
293.15 K, 66185 kPa | 846.9
293.16 K, 304 kPa | 806.8
293.16 K, 505 kPa | 807
293.16 K, 1026 kPa | 807.4
293.16 K, 1994 kPa | 808.2
293.16 K, 3011 kPa | 808.9
293.16 K, 4984 kPa | 810.4
293.16 K, 7001 kPa | 811.9
293.16 K, 8967 kPa | 813.4
293.16 K, 17912 kPa | 819.5
293.16 K, 20060 kPa | 821
293.16 K, 33109 kPa | 829
293.16 K, 35005 kPa | 830.2
293.16 K, 60071 kPa | 843.8
298.15 K, 96 kPa | 802.3
298.15 K, 291 kPa | 802.5
298.15 K, 488 kPa | 802.7
298.15 K, 995 kPa | 803.1
298.15 K, 2020 kPa | 803.9
298.15 K, 9025 kPa | 809.3
298.15 K, 10078 kPa | 810
298.15 K, 17949 kPa | 815.6
298.15 K, 19932 kPa | 817
298.15 K, 22061 kPa | 818.4
298.15 K, 24991 kPa | 820.3
298.15 K, 27926 kPa | 822.2
298.15 K, 30121 kPa | 823.6
298.15 K, 32061 kPa | 824.8
298.15 K, 33040 kPa | 825.4
298.15 K, 33088 kPa | 825.4
298.15 K, 35034 kPa | 826.5
298.15 K, 38020 kPa | 828.3
298.15 K, 49981 kPa | 835.1
298.15 K, 57978 kPa | 839.4
298.15 K, 60039 kPa | 840.5
298.15 K, 62048 kPa | 841.5
298.15 K, 66054 kPa | 843.6
298.16 K, 906 kPa | 803
298.16 K, 3037 kPa | 804.7
298.16 K, 5064 kPa | 806.3
298.16 K, 7065 kPa | 807.8
298.16 K, 12017 kPa | 811.4
298.16 K, 15244 kPa | 813.7
298.16 K, 34019 kPa | 825.9
298.16 K, 40026 kPa | 829.5
298.16 K, 42019 kPa | 830.7
298.16 K, 44993 kPa | 832.3
298.16 K, 47933 kPa | 834
298.16 K, 52047 kPa | 836.3
298.16 K, 54969 kPa | 837.8
298.16 K, 65037 kPa | 843.1
303.15 K, 98 kPa | 798.2
303.15 K, 290 kPa | 798.3
303.15 K, 914 kPa | 798.8
303.15 K, 1019 kPa | 798.9
303.15 K, 2009 kPa | 799.7
303.15 K, 3007 kPa | 800.5
303.15 K, 4968 kPa | 802.1
303.15 K, 8967 kPa | 805.2
303.15 K, 17980 kPa | 811.8
